In US8080553B2, “Methods and reagents for the treatment of immunoinflammatory disorders” (Zalicus Inc., priority 2003, dated 2011):
Where “and” joins values, the source holds several entries; their conditions need not be identical. Equal entries are not always repeated. Structures can show the parent of a compound that is named as a salt. Where two headings read alike, the source gives them in different places.

Assays:
[1] = test system: TNFα secretion in white blood cells from human buffy coat; test: TNFα secretion assay, cells stimulated with phorbol 12-myristate 13-acetate and ionomycin (Tables 7-26); details: for percent inhibition of TNFα secretion: dipyridamole 0 μM; for inhibition at 0.3 µM: read-out: percent inhibition of TNFα secretion, dipyridamole 0.3 μM; for inhibition at 19 µM: read-out: percent inhibition of TNFα secretion, dipyridamole 19 μM; for inhibition at 39 µM: read-out: percent inhibition of TNFα secretion, dipyridamole 39 μM
Method: (§1) Drugs were added to the indicated concentration. […] The plate was then washed again with 0.1% Tween 20/PBS. An HRP-luminescent substrate was added to each well, and the light intensity of each well was measured using a plate luminometer.

[2] = test system: TNFα secretion in white blood cells from human buffy coat
Method: as §1

[3] = Homo sapiens, Nortriptyl (μM): 0, 0.52, 1, 2.1, 4.2, 8.3, 17, 33, 67
[4] = Homo sapiens, Ro-20-1724 (μM) by grid row: r5 0, r6 0.28, r7 0.56, r8 1.1, r9 2.2, r10 4.5, r11 9, r12 18, r13 36
[5] = Homo sapiens, amoxapine (μM) by grid row: r5 0, r6 0.25, r7 0.5, r8 1, r9 2, r10 4, r11 8, r12 16, r13 32
[6] = Homo sapiens, fluoxetine (μM) by grid row: r5 0, r6 0.45, r7 0.9, r8 1.8, r9 3.6, r10 7.2, r11 14, r12 29, r13 58
[7] = Homo sapiens, paroxetine (μM): 0, 0.21, 0.42, 0.83, 1.7, 3.3, 6.7, 13, 27

In the case of `CCOC(=O)N1CCC(=C2c3ccc(Cl)cc3CCc3cccnc32)CC1` [Loratadine], the “percent inhibition of TNFα secretion” value ([1]; loratadine (μM) by grid row: r5 0, r6 0.2, r7 0.41, r8 0.82, r9 1.6, r10 3.3, r11 6.5, r12 13, r13 26) is reported as 31%.
Molecule `CCCC1O[C@@H]2C[C@H]3[C@@H]4CCC5=CC(=O)C=C[C@]5(C)[C@H]4[C@@H](O)C[C@]3(C)[C@]2(C(=O)CO)O1` (stereo partly shown) [Budesonide] has an inhibition at […] ([1]; Homo sapiens, read-out: percent inhibition of TNFα secretion, budesonide 35 nM, dipyridamole (μM as printed) by grid row: r5 0, r6 30, r7 121, r8 486, r9 1943, r10 7773) of 36.3%.
For `OCCN(CCO)c1nc(N2CCCCC2)c2nc(N(CCO)CCO)nc(N3CCCCC3)c2n1` [Dipyridamole, 2,6-bis(diethanolamino)-4,8-dipiperidinopyrimido(5,4-d)pyrimidine], the inhibition at 0.3 µM [1, 3] was 14%, the inhibition at 0.3 µM [1, 4] was -1.96% and the inhibition at 0.3 µM [1, 5] was 19%. It also gave an inhibition at 0.3 µM [1, 6] of 18%, an inhibition at 0.3 µM [1, 7] of 21% and an inhibition at 19 µM [1, 3] of 64%. It also gave an inhibition at 19 µM [1, 4] of 64%, an inhibition at 19 µM [1, 6] of 62% and an inhibition at 19 µM [1, 7] of 60%. For the same molecule, the inhibition at 39 µM [1, 3] was 80%, the inhibition at 39 µM [1, 5] was 78% and the inhibition at 39 µM [1, 6] was 76%. The inhibition at 39 µM [1, 7] was 76%.
For `CN1CCC(=C2c3ccccc3C=Cc3ccccc32)CC1` [Cyproheptadine HCl], the “percent inhibition of TNFα secretion” value ([1]; cyproheptadine HCl (μM) by grid row: r5 0, r6 0.24, r7 0.48, r8 0.96, r9 1.9, r10 3.9, r11 7.7, r12 15, r13 31) was 29%.
With `CC(C)C(=O)c1c(C(C)C)nn2ccccc12` [Ibudilast] the inhibition at 0.5 µM ([1]; Homo sapiens, read-out: percent inhibition of TNFα secretion, ibudilast 0.5 μM, dipyridamole (μM): 0, 0.15, 0.3, 0.61, 1.2, 2.4, 4.9, 9.7, 19) was 22.9%, the inhibition at 1 µM ([1]; Homo sapiens, read-out: percent inhibition of TNFα secretion, ibudilast 1 μM, dipyridamole (μM): 0, 0.15, 0.3, 0.61, 1.2, 2.4, 4.9, 9.7, 19) was 37.4% and the inhibition at 2 µM ([1]; Homo sapiens, read-out: percent inhibition of TNFα secretion, ibudilast 2 μM, dipyridamole (μM): 0, 0.15, 0.3, 0.61, 1.2, 2.4, 4.9, 9.7, 19) was 42.9%. The inhibition at 4 µM ([1]; Homo sapiens, read-out: percent inhibition of TNFα secretion, ibudilast 4 μM, dipyridamole (μM): 0, 0.15, 0.3, 0.61, 1.2, 2.4, 4.9, 9.7, 19) was 45.9% and the inhibition at 8 µM ([1]; Homo sapiens, read-out: percent inhibition of TNFα secretion, ibudilast 8 μM, dipyridamole (μM): 0, 0.15, 0.3, 0.61, 1.2, 2.4, 4.9, 9.7, 19) was 53.8%.
For `C[C@H]1C[C@H]2[C@@H]3CCC4=CC(=O)C=C[C@]4(C)[C@@]3(F)[C@@H](O)C[C@]2(C)[C@@]1(O)C(=O)CO` [Betamethasone], the inhibition [2] was 34.9% and 35.2%.
Work on `C[C@]12C=CC(=O)C=C1CC[C@@H]1[C@@H]2[C@@H](O)C[C@@]2(C)[C@H]1CC[C@]2(O)C(=O)CO` [Prednisolone] yielded an inhibition at 0.5 µM ([1]; Homo sapiens, read-out: percent inhibition of TNFα secretion, prednisolone 0.5 μM, dipyridamole (μM) by grid row: r5 0, r6 0.3, r7 0.61, r8 1.2, r9 2.4, r10 4.9, r11 9.7, r12 19, r13 39) of 29.9%.
Work on `COc1ccc(C2CNC(=O)C2)cc1OC1CCCC1` (stereo not shown) [Rolipram, 4-[3-(cyclopentyloxy)-4-methoxyphenyl]-2-pyrrolidone] yielded an inhibition at 0.5 µM ([1]; Homo sapiens, read-out: percent inhibition of TNFα secretion, rolipram 0.5 μM, dipyridamole (μM): 0, 0.15, 0.3, 0.61, 1.2, 2.4, 4.9, 9.7, 19) of 36.8% and an inhibition at 1 µM ([1]; Homo sapiens, read-out: percent inhibition of TNFα secretion, rolipram 1 μM, dipyridamole (μM): 0, 0.15, 0.3, 0.61, 1.2, 2.4, 4.9, 9.7, 19) of 38.9%.
